Values quoted from earlier work as cited in patent US20190231691A1, “Biopharma Application Of Micell Technology” (Micell Technologies, Inc., priority 2015, published 2019).

Settings: in vivo

## CO[C@H]1C[C@@H]2CC[C@@H](C)[C@@](O)(O2)C(=O)C(=O)N2CCCC[C@H]2C(=O)O[C@H]([C@H](C)C[C@@H]2CC[C@@H](O)[C@H](OC)C2)CC(=O)[C@H](C)/C=C(\C)[C@@H](O)[C@@H](OC)C(=O)[C@H](C)C[C@H](C)/C=C/C=C/C=C/1C [rapamycin]
  bioavailability: less than 14%
